Earlier results in patent US6376509B2, “Melanocortin receptor agonists” (Merck & Co., Inc., priority 2000, dated 2002).

Columns and labels:
[1] = test system: erectile dysfunction; details: for duration of effect / onset of action: after an oral dose; for share of patients with adequate response: oral, men with erectile dysfunction
[2] = test system: psychogenic erectile dysfunction

## CCCc1nn(C)c2c(=O)[nH]c(-c3cc(S(=O)(=O)N4CCN(C)CC4)ccc3OCC)nc12 [sildenafil]
[1]
  duration of effect: about 4 hours
  onset of action: 30 to 60 min
  share of patients with adequate response: about 70%

## Cc1ccc(N(CC2=NCCN2)c2cccc(O)c2)cc1 [phentolamine]
[1]
  duration of effect: 2 h
  onset of action: 5 to 30 min
  share of patients with adequate response: 35-40%

## Ac-Nle-c[Asp-His-DPhe-Arg-Trp-Lys]-NH2 [MT-II]
[2]; in vivo, po
  absorption into the systemic circulation: not absorbed into the systemic circulation
[2]; injected intramuscularly or subcutaneously, males with psychogenic erectile dysfunction
  response rate: 75%
[2]; subcutaneous injection
  duration of action: approximately 2.5 hours
  time to onset of erection: 10 to 20 min
